We go through five molecules from ChEMBL document CHEMBL1201862, “PubChem BioAssay data set” (2004).

Among the test systems are 786-0; A498; ACHN; HOP-92; HT-29; Hs-578T; K562; LOX IMVI; MDA-N; MOLT-4; NCI-H460; OVCAR-8; PC-3; RPMI-8226; SK-MEL-2; SK-OV-3; SR; SW-620; TK-10; UO-31.
Common to all, as to assay: DTP human tumour cell line panel, 48 h

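Values below derive from 48-hour exposures of cells grown in 96-well plates, with endpoints linearly interpolated between the two concentrations bracketing the appropriate inhibition level. GI50 marks 50% less growth.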 Active and inactive are the calls of the source. Cut-off read from the data, not from the text of the source: active = GI50 up to about 1.1 µM and inactive = higher. Bounds are passed on as bounds.

For the molecule `CC(C)CCn1nc(N)c2nc3ccccc3nc21`, the GI50 in the assay on 786-0 was > 100 µM (inactive); with A498, > 100 µM (inactive); in the assay with ACHN, 41.3 µM (inactive); in the assay on HOP-92, > 100 µM (inactive); with HT-29, 64.7 µM (inactive); with Hs-578T it was > 100 µM (inactive). In addition, the GI50 with K562 was 57.1 µM (inactive); in the assay with LOX IMVI, > 100 µM (inactive); with MDA-N, > 100 µM (inactive); in the assay with MOLT-4, 26.3 µM (inactive); with NCI-H460, 57 µM (inactive); with OVCAR-8, > 100 µM (inactive). Besides, the GI50 is > 100 µM (inactive) in the assay with PC-3; > 100 µM (inactive) in the assay with RPMI-8226; > 100 µM (inactive) in the assay with SK-MEL-2; > 100 µM (inactive) in the assay on SK-OV-3; 15.2 µM (inactive) with SR; 67.6 µM (inactive) with SW-620. The GI50 in the assay with TK-10 and in the assay with UO-31 was > 100 µM (inactive) throughout.
`CC1=NN(c2ccccc2Cl)C2(C1)C(Cl)C(=O)N2c1nc2ccccc2s1` (stereo not given): the GI50 in the assay with 786-0 is 31.8 µM (inactive); in the assay with A498, > 100 µM (inactive); with ACHN, 94.8 µM (inactive); in the assay on HOP-92 it was 88.7 µM (inactive); in the assay with HT-29, 51.5 µM (inactive); with Hs-578T it was > 100 µM (inactive). Further, the GI50 in the assay with K562 is 37.5 µM (inactive); with LOX IMVI, 15.5 µM (inactive); in the assay with MDA-N, 62.7 µM (inactive); with MOLT-4, 30 µM (inactive); in the assay with NCI-H460, 79.6 µM (inactive); in the assay on OVCAR-8 it was 38.1 µM (inactive). For the same molecule, the GI50 in the assay with PC-3 is > 100 µM (inactive); in the assay with RPMI-8226 it was 21.7 µM (inactive); with SK-MEL-2 it was 48.9 µM (inactive); in the assay on SK-OV-3, 24.7 µM (inactive); in the assay on SR, 21.1 µM (inactive); with SW-620 it was 63.4 µM (inactive). Moreover, the GI50 with TK-10 is > 100 µM (inactive); with UO-31, 61.8 µM (inactive).
As to `O=[N+]([O-])/C(Cl)=C(/C(Cl)=C(Cl)Cl)N1CCOCC1`, the GI50 in the assay on 786-0 is 2.92 µM (inactive); in the assay on A498, 3.04 µM (inactive); in the assay with ACHN, 6.01 µM (inactive); with HOP-92, 2.51 µM (inactive); in the assay on HT-29, 3.4 µM (inactive); in the assay on Hs-578T, 3.8 µM (inactive). The GI50 in the assay with K562 is 3.18 µM (inactive); in the assay on LOX IMVI, 3.66 µM (inactive); in the assay with MDA-N, 2.32 µM (inactive); with MOLT-4, 2.58 µM (inactive); in the assay with NCI-H460, 4.33 µM (inactive); in the assay with OVCAR-8, 2.56 µM (inactive). Besides, the GI50 is 6.01 µM (inactive) in the assay with PC-3; 2.56 µM (inactive) with RPMI-8226; 2.12 µM (inactive) in the assay with SK-MEL-2; 13.8 µM (inactive) in the assay on SK-OV-3; 2.21 µM (inactive) with SR; 2.69 µM (inactive) in the assay on SW-620. In addition, the figures for the GI50 in the assay on TK-10 and in the assay on UO-31 were 3.49 µM (inactive) and 6.1 µM (inactive), respectively.
`CC(C)CCOC(=O)NC(Nc1ccc(F)cc1)(C(F)(F)F)C(F)(F)F`: the GI50 is > 100 µM (inactive) with 786-0; 42.9 µM (inactive) with A498; 1.66 µM (inactive) in the assay on ACHN; 44.2 µM (inactive) with HOP-92; 39.8 µM (inactive) in the assay with HT-29; > 100 µM (inactive) with Hs-578T. In addition, the GI50 is 0.695 µM (active) in the assay on K562; 40.9 µM (inactive) with LOX IMVI; 2.81 µM (inactive) in the assay on MDA-N; 19.1 µM (inactive) in the assay with MOLT-4; 41.3 µM (inactive) in the assay on NCI-H460; 51.8 µM (inactive) in the assay on OVCAR-8. Moreover, the GI50 with PC-3 was 28.1 µM (inactive); in the assay with RPMI-8226 it was 22.1 µM (inactive); with SK-MEL-2 it was 53.1 µM (inactive); in the assay on SK-OV-3, 63 µM (inactive); with SR, 0.679 µM (active); with SW-620, 19 µM (inactive). Besides, the GI50 in the assay on TK-10 was 29.7 µM (inactive); in the assay with UO-31, 10.7 µM (inactive).
As for `COC(=O)/C(C#N)=C(\Nc1ccccc1)N1CCCCC1`, the GI50 in the assay on 786-0, in the assay with A498, in the assay with ACHN, in the assay on HOP-92, in the assay with HT-29 and with Hs-578T was > 100 µM (inactive) throughout. Further, the GI50 in the assay on K562, with LOX IMVI, with MDA-N, in the assay with MOLT-4, with NCI-H460 and in the assay with OVCAR-8 was > 100 µM (inactive) in each case. In addition, the GI50 in the assay with PC-3, in the assay on RPMI-8226, in the assay on SK-MEL-2, with SK-OV-3, in the assay on SR and in the assay on SW-620 was > 100 µM (inactive) each time. Further, the GI50 in the assay on TK-10 and with UO-31 was > 100 µM (inactive) each time.
